Experimental findings from EPA's ToxValDB 9.5 are described below.

This series relates to Rattus norvegicus. To be noted: oral.
Setting [1] is: short-term, duration: 28 days, gavage, F, Sprague-Dawley, Deaths + Clinical Observation: Locomotor activity decrease, Abnormal respiratory sound Deep respiration Pale skin Hypothermia Ptosis ….
Where [2] appears, read: short-term, duration: 28 days, gavage, M, Sprague-Dawley, Deaths + Clinical Observation: Locomotor activity decrease, Abnormal respiratory sound Deep respiration Pale skin Hypothermia Ptosis ….
Where [3] appears, read: subchronic, gavage, M, Sprague-Dawley, Water Consumption: increase + Urinalysis: Osmotic pressure decrease, Volume increase, R.
[4] abbreviates: subchronic, gavage, M, Sprague-Dawley, Clinical Observation: Salivation + Urinalysis: Volume increase, Tubular epithelial cell + Blood Chemistry: PL increasegamma-GTP increase, TP….
Where [5] appears, read: short-term, duration: 28 days, gavage, F, Sprague-Dawley, Deaths + Clinical Observation: Locomotor activity decrease, Salivation + Body Weight Changes: decrease, Gain decrease + Food Consumption: ….
Setting [6] is: short-term, duration: 28 days, gavage, M, Sprague-Dawley, Deaths + Clinical Observation: Locomotor activity decrease, Salivation + Body Weight Changes: decrease, Gain decrease + Food Consumption: ….
Where [7] appears, read: short-term, duration: 28 days, gavage, M, Sprague-Dawley, Clinical Observation: Locomotor activity decrease, SalivationRespiratory rate decrease, Incomplete eyelid opening + Body Weight Changes: ….

Usually NOAEL stands for the highest dose or exposure tested at which no adverse effect was seen. In general, LOAEL refers to the lowest tested level that showed an adverse finding.

Consider `COC(=O)C1=C(C#N)NC(C)=C(C(=O)OC(C)C)C1c1cccc([N+](=O)[O-])c1` (configuration not stated) [Nilvadipine], for which the NOEL (subchronic, gavage, M/F, Sprague-Dawley, Relative Organ Weight: Heart increase Liver increase Ovary increase + Histopathology: Adrenal-Lipoid increase, of zona glomerulosa) was under 9.6 mg/kg-day.

Turning to `CCCC[B-](c1ccccc1)(c1ccccc1)c1ccccc1.CCCC[N+](CCCC)(CCCC)CCCC` [Tetrabutylammonium butyltriphenylborate], the NOEL (short-term, duration: 28 days, gavage, M/F, Blood Chemistry: GPT increase, CHE decrease + Histopathology: Thymus-Proliferation, histiocyte Thymus-Atrophy Adrenal-Decreased lipoid) is under 3 mg/kg-day.

Turning to `CC(=O)O.O=C(NCC1CCCCN1)c1cc(OCC(F)(F)F)ccc1OCC(F)(F)F` (configuration not stated) [Flecainide acetate], the NOAEL (chronic, duration: 91 days, gavage, F, Sprague-Dawley, Deaths + Clinical Observation: Patchy hair loss Salivation + Water Consumption: increase + Urinalysis: Volume increase, Protein decrease + …) came out at 20 mg/kg-day and the no-observed-adverse-effect level (NOAEL) (chronic, duration: 91 days, gavage, M, Sprague-Dawley, Deaths + Clinical Observation: Patchy hair loss Salivation + Water Consumption: increase + Urinalysis: Volume increase, Protein decrease + …) stood at 10 mg/kg-day.

For `O=[N+]([O-])C(Br)(CO)CO` [Bronopol], the LOEL reads like this: under setting [1], 30 mg/kg-day; under setting [2], 90 mg/kg-day. Also, the NOEL by setting is: under setting [1], 10 mg/kg-day; under setting [2], 30 mg/kg-day.

Turning to `CC(C)(C)c1cc(-n2nc3ccc(Cl)cc3n2)c(O)c(C(C)(C)C)c1`, the no-observed-adverse-effect level (NOAEL) (subchronic, duration: 42 days, gavage, M, CD(SD), Hematology: RBC decrease, NEUT increase, APTT decrease + Blood Chemistry: ALB increase, A/G increase, ALP increase, T-BIL decreasea2-GLOB …) is 2.5 mg/kg-day.

Take `C=C[Si](OCCOC)(OCCOC)OCCOC` [Tris(2-methoxyethoxy)vinylsilane]: the NOAEL (short-term, duration: 28 days, gavage, M/F, CD(SD), Body Weight Changes: decrease + Food Consumption: decrease + Hematology: RBC decrease, HGB decrease, HCT decrease, MCHC decrease, RET …) is 25 mg/kg-day.

With `CCC[CH2][Sn]([CH2]CCC)([CH2]CCC)[CH2]CCC` [Tetrabutyltin], under “subchronic, duration: 33 days, diet, M, Wistar, Body Weight Changes: Weight gain decrease + Absolute Organ Weight: Thymus decrease + Relative Organ Weight: Thymus decrease, Spleen decrease…”, the NOAEL came to 9.6 mg/kg-day.

In the case of `CCC(Cl)C(Cl)C(Cl)CC(Cl)C(Cl)C(C)Cl` (configuration not stated) [C10-12 chloroalkanes], the NOEL (subchronic, duration: 13 weeks, gavage, M/F, Fischer 344, Clinical Observation: Inactive + Body Weight Changes: decrease + Relative Organ Weight: Liver increase + Histopathology: Liver-Hypertrophy, …) is under 313 mg/kg-day.

Turning to `Fc1ccc(Br)cc1F` [4-Bromo-1,2-difluorobenzene], where the note is “short-term, duration: 28 days, gavage, M/F, Deaths + Clinical Observation: Locomotor activity decrease, Salivation Paleness of Auricle + Body Weight Changes: Gain decrease + …”, the NOEL was determined as 20 mg/kg-day.

Take `COc1c(Cl)c(Cl)c(Cl)c(Cl)c1Cl` [Pentachloroanisole]: the NOEL (subchronic, duration: 13 weeks, gavage, M/F, Fischer 344, Deaths + Clinical Observation: Labored respiration + Body Weight Changes: decrease + Blood Chemistry: Ch E decrease + Absolute Organ Weight…) is under 40 mg/kg-day.

In the case of `NCCS(=O)(=O)O` [l-Taurine], under setting [3], the LOEL stood at 1000 mg/kg-day, the NOAEL came to 1000 mg/kg-day and the NOEL amounted to 300 mg/kg-day.

As to `Cl.Nc1ccccc1-c1ccccc1` [2-Biphenylamine hydrochloride], the NOEL (subchronic, duration: 13 weeks, diet, M/F, Fischer 344, Histopathology: Spleen-Congestion Spleen-Extramedullary hematopoiesis Spleen-Hemosiderosis Spleen-Thickened capsule Spleen-Lymphoid atrophy …) came out at 28.8 mg/kg-day.

`CCCCCCCC1CCCC1=O` (configuration not stated) [2-Heptylcyclopentanone]: under setting [4], the NOAEL is 200 mg/kg-day and the NOEL turned out to be 50 mg/kg-day.

For `NS(=O)(=O)c1ccccc1` [Benzenesulfonamide], under setting [5], the LOAEL was 30 mg/kg-day, the LOEL turned out to be 30 mg/kg-day, the NOAEL came out at 6 mg/kg-day and the NOEL came out at 6 mg/kg-day. Also, under setting [6], the LOAEL amounted to 30 mg/kg-day, the LOEL was found to be 30 mg/kg-day, the NOAEL was determined as 6 mg/kg-day and the NOEL is 6 mg/kg-day.

For `Cc1ccc(Nc2ccc(C)cc2)cc1` [4,4'-Dimethyldiphenylamine], the NOEL (short-term, duration: 28 days, gavage, M/F, Clinical Observation: Salivation + Blood Chemistry: GOT increase, GPT increase, gamma-GTP increase, T-CHO increase, TG increase, IP …) is 30 mg/kg-day.

`CC(C)(C1CCC(O)CC1)C1CCC(O)CC1` (configuration not stated) [4,4'-Propane-2,2-diyldicyclohexanol]: under “subchronic, gavage, M, Sprague-Dawley, Hematology: APTT increase, PT increase + Blood Chemistry: TG increase, TP increase, Ca increasegamma-GTP increase, Glu decrease, Cho …”, the NOEL worked out at 20 mg/kg-day.

With `CCCCCCCCCCCCCCCCCCCCCC[N+](C)(C)C.[Cl-]` [Docosyltrimethylammonium chloride], under “subchronic, gavage, M, Sprague-Dawley, Clinical Observation: Salivation Perinasal and perioral smudge Soft stool and diarrhea + Body Weight Changes: decrease, R + Food …”, the NOEL is under 5 mg/kg-day.

As to `CCC(C)c1cc(C(C)(C)C)cc(-n2nc3ccccc3n2)c1O` (configuration not stated) [2-(2H-Benzotriazol-2-yl)-6-(butan-2-yl)-4-tert-butylphenol], the NOAEL (subchronic, duration: 42 days, gavage, M, Sprague-Dawley, Hematology: HGB decrease + Blood Chemistry: TP increase, Alb increase, A/G increase, ALP increase, ChE increase + Absolute Organ Weight: …) came out at 4 mg/kg-day. The NOEL (subchronic, gavage, M, Sprague-Dawley, Blood Chemistry: TG decrease PL decrease Alb increase A/G increase Alp increase + Absolute Organ Weight: Liver increase + Relative Organ …) is under 0.5 mg/kg-day.

Take `COC(=O)C1=C(C)NC(C)=C(C(=O)OCCN(C)Cc2ccccc2)C1c1cccc([N+](=O)[O-])c1.Cl` (configuration not stated) [Nicardipine hydrochloride]: under “subchronic, duration: 35 days, gavage, M/F, Sprague-Dawley, Deaths + Clinical Observation: Locomotor activity decrease, Prone position Dyspnea Ataxic gait Ptosis Piloerection Respiratory rate increase…”, the NOEL was determined as 10 mg/kg-day.

For `CN(C)C(=O)Nc1ccc(Cl)cc1` [Monuron], under setting [7], the no-observed-adverse-effect level (NOAEL) is under 40 mg/kg-day and the NOEL was under 40 mg/kg-day.

For the compound `CC(C)Nc1ccc(NC(C)C)c2c1C(=O)c1ccccc1C2=O` [1,4-Bis(N-isopropylamino)anthraquinone], the NOEL (subchronic, duration: 42 days, gavage, M, CD(SD), Clinical Observation: Dark purple feces Purple urine Purple colored skin + Urinalysis: Lite purple colored urine Purple colored urine + …) came to 12 mg/kg-day.
